In patent US4276430A, “Analgesic and anti-inflammatory compounds and compositions containing same” (The Procter & Gamble Company, priority 1979, dated 1981):
Each block holds one compound with its values, some of them ahead of it.

Experiments:
[1] = guinea pig ultraviolet light induced erythema test; type: in vivo, guinea pig (Hartley strain albino); settings: Cavia porcellus; topical; cumulative blanching grades over a 1-4 hour period after application; vehicle propylene glycol/ethanol; read-out: IC50 (concentration which inhibits UV-induced erythema by 50%)
Protocol: The compositions of this invention are evaluated for their anti-inflammation properties using a guinea pig ultraviolet light induced erythema test.
Hartley strain albino guinea pigs weighing between 400 and 500 grams are clipped on the dorsal area and then depilated using a cream hair remover. 15 minutes after the application of the hair remover, the area is thoroughly washed using warm tap water and then dried with a towel. […] Ten minutes irradiation constitutes a minimal erythema dose. An adhesive tape strip is attached to the center of the guinea pig's back to retain an unirradiated portion of skin. About 1 hour after irradiation time, 3 preparations are applied on each side using a micropipette. The treated areas are about 1×4 cm in size and are aligned vertically from near the center back down the side. The degree of blanching is determined at hourly intervals.
Compositions as below are formulated and tested.
*Dihydroxybenzoic acid derivative
Comparisons of the anti-inflammatory activity of the dihydroxybenzoic acid derivatives are made by calculating their IC50 values.

[2] = UV-induced pain test in humans: analgesic activity (radiant heat pain stimulus); type: in vivo, human; settings: for Recovery of Treated Skin: 1% (w/w) in propylene glycol/ethanol
Source text: The UV-induced erythema and/or pain model consists of creating a burn with ultraviolet light (UV) and treating the resultant erythemal reaction with topical applications of the new drug formulations. At various time intervals, the degree of erythema and the pain tolerance response to radiant heat are monitored.
Experiments have been designed to determine the effectiveness of benzyl 2,5-diacetoxybenzoate according to several parameters: treatment times, concentration of drug, repeated applications,duration of response, and vehicles.
A total of 56 subjects were actually used in the UV-induced erythema and pain tests.
The compositions of the test formulations employed in these studies were as follows: […]
(E) 0.01-0.5% (w/w) benzyl 2,5-diacetoxybenzoate in ethanol/propylene glycol/water (50/10/40, w/w/w);
(G)* 0.025 to 2.5% (w/w) benzyl 2,5-diacetoxybenzoate in a cream vehicle;
Induction of Erythema: Subjects were irradiated on a 2.5×20 cm area on their backs, using a bank of three 20S Westinghouse fluorescent lamps at a distance of 15 cm. Each subject received 2 to 4 MEDs of light (minimum erythemal dose) for these experiments.
Treatment with Formulations: The UV-irradiated area was divided into 4 treatment sites. When liquid formulations were tested, up to 40 microliter were topically applied to each treatment site using an Eppendorf micropipet. When cream formulations were tested, no more than 100 microliter were topically applied to each treatment site using a 1 cc tuberculin syringe with no needle; the cream was rubbed into the skin with a gloved finger.
Each site was treated no more than 4 times, and all treatments occurred within the 24-hour interval following UV-irradiation.
A randomixed treatment sequence was used.
2. Analgesic At suitable time
Elapsed time, in seconds,
Activity intervals within
to respond to a radiant
treated and untreated skin.
Skin irradiated with 3-4 MEDs (minimal erythemal doses) of UV-B light (normal sunburn range) becomes hyperalgesic to radiant heat in about four hours.
The experimental design was regarded as randomized blocks, in which the subject is the "block". The variation between subjects with respect to erythema or analgesic response was accounted for as a source of variation in the Analysis of Variance (ANOVA).

[3] = UV-induced erythema test in humans: anti-erythemic activity (blanching); type: in vivo, human; settings: for blanching response: first 3-4 hours after a single application
[4] = suppression of inflammation associated with arthritis (Mycobacterium butyricum, hind paw volume); type: in vivo, rat (Male Sprague-Dawley); settings: topical 20 mg/kg/day, five weeks
Protocol: This example illustrates the efficacy of the dihydroxybenzoic acid derivatives described herein for suppressing the inflammation associated with arthritis.
Male Sprague-Dawley rats, weighing between 180-200 grams, are injected subcutaneously in the distal third of the tail with a suspension of 0.8 mg of heat-killed Mycobacterium butyricum in 0.1 ml of mineral oil. This injection introduces arthritis into the rat as evidenced by pedal edema (swelling). Measurement of the alleviation of the inflammation associated with the arthritis is made by determining the volume of the hind paws initially, two weeks later, and each subsequent week thereafter. The paw volume measurements are obtained by immersing each rat's hind paw up to a predetermined mark in a mercury bath connected to a Statham pressure transducer. The increase in pressure within the bath is proportional to the volume of the paw introduced.
A solution of benzyl 2,5-diacetoxybenzoate is made. The solution comprises a 1:1 mixture of propylene glycol and ethanol and 2% benzyl 2,5-diacetoxybenzoate. In one group, each rat is treated topically with 20 mg/kg/day of the benzyl 2,5-diacetoxybenzoate solution. The changes in paw volume after each treatment are compared to the control rats.

[5] = cited from earlier work
[6] = administered orally; aspirin-based products; cited from earlier work
[7] = vehicle propylene glycol/ethanol (50/50, w/w)

IC50 [1]: 340 µM
SMILES: CCCCCCCCOC(=O)c1cc(OC(C)=O)ccc1OC(C)=O [C8 H17]

SMILES: CCCCC(CC)COC(=O)c1cc(OC(C)=O)ccc1OC(C)=O (stereo not shown) [C2 H3 (C2 H5)C4 H9, 2'-ethylhexyl 2,5-diacetoxybenzoate]
IC50 [1]: 5800 µM

SMILES: CCCOC(=O)c1cc(OC(C)=O)ccc1OC(C)=O [C3 H7, Propyl 2,5-diacetoxybenzoate]
IC50 [1]: 1100 µM

SMILES: CCCCCCCCCCCCOC(=O)c1cc(OC(C)=O)ccc1OC(C)=O [C12 H25, Dodecyl 2,5-diacetoxybenzoate]
IC50 [1]: 1200 µM

SMILES: CCCCCCOC(=O)c1cc(OC(C)=O)ccc1OC(C)=O [C6 H13, Hexyl 2,5-diacetoxybenzoate]
IC50 [1]: 340 µM

SMILES: CCCCOC(=O)c1cc(OC(C)=O)ccc1OC(C)=O [C4 H9, n-Butyl 2,5-diacetoxybenzoate]
IC50 [1]: 1200 µM

IC50 [1]: 2300 µM
SMILES: COC(=O)c1cc(OC(C)=O)ccc1OC(C)=O [CH3]

SMILES: CCCCCCCCCCOC(=O)c1cc(OC(C)=O)ccc1OC(C)=O [C10 H21, Decyl 2,5-diacetoxybenzoate]
IC50 [1]: 650 µM

IC50 [1]: 1200 µM
SMILES: CC(=O)Oc1ccc(OC(C)=O)c(C(=O)OC(C)c2ccccc2)c1 (stereo not shown) [CH(C6 H5)CH3]

IC50 [1]: 1800 µM
SMILES: CCOC(=O)c1cc(OC(C)=O)ccc1OC(C)=O [C2 H5]

SMILES: CC(=O)Oc1ccc(OC(C)=O)c(C(=O)OCc2ccccc2)c1 [Benzyl 2,5-diacetoxybenzoate]
Tests with Analgesic Responses ([2]; 0.01% in Propylene Glycol/Ethanol (50/50, w/w)): 1/6
dose dependence of the analgesic response ([2]; 0.01-1.0% in Propylene Glycol/Ethanol (50/50, w/w)): dose-dependent
Tests with Analgesic Responses ([2]; 0.1% in Propylene Glycol/Ethanol (50/50, w/w)): 2/6
analgesic activity, three applications compared with 2 or 1 ([2]; 0.25%): more effective than 2 or 1 applications
analgesic activity, repeated application compared with single application ([2]; 1%): failed to increase the level of analgesic activity effected by a single application
time of maximum analgesic activity ([2]; 1% (w/w) in propylene glycol/ethanol (50/50, w/w), treatment 2 to 6 hours after UV-irradiation, following treatment): 2 to 4 h
duration of some analgesic effects ([2]; 1% (w/w) in propylene glycol/ethanol (50/50, w/w), after treatment(s)): up to 10 hours
Tests with Analgesic Responses ([2]; 1.0% in Propylene Glycol/Ethanol (50/50, w/w)): 9/12
Recovery of Treated Skin ([2]; 2-4 hours after treatment, 22 subjects, SE 0.5, normal minus non-treated skin 4.0): 2.4 s
Recovery of Treated Skin ([2]; 5-7 hours after treatment, 16 subjects, SE 0.4): 1.6 s
Recovery of Treated Skin ([2]; 8-10 hours after treatment, 6 subjects, SE 0.7): 1.4 s
delivery of an efficacious dose into the skin, compared with propylene glycol/ethanol ([2]; Ethanol/water (80/20), ethanol/propylene glycol/water (50/10/40), and a cream): somewhat less effective than propylene glycol/ethanol
topical analgesic activity ([2]; conclusion, rather severe and acute pain): does have topical analgesic activity for rather severe and acute pain
return to normal pain tolerance ([2]; in 8 out of the 12 tests, at least one concentration at one time point): ≥ 80%
analgesic action in non-irradiated skin ([2]; non-irradiated skin): No evidence of analgesic action was found
analgesic response by vehicle ([2]; propylene glycol/ethanol (50/50, w/w) vehicle, compared with 4 vehicle systems): strongest analgesic activity
analgesic activity ([2]; skin treated 2 to 6 hours following UV-irradiation): Analgesic activity was demonstrated
tests in which at least one concentration at one time point effected at least an 80% return to normal pain tolerance [2, 7]: 8 out of the 12
tests with statistically significant analgesia [2, 7]: 9 out of 12
blanching response ([3]; 0.01%): distinctly weaker
blanching response ([3]; 0.03-2.5%): very similar responses
blanching response, multiple application compared with single application ([3]; 1 to 2.5%, 1 to 4 times within 24 hours): did not produce an effect greater than obtained with a single application
half-life of the response (time for the maximum response to diminish 50%) ([3]; after drug treatment): about 9 hours
time of maximum blanching response ([3]; after drug treatment): 2 to 3 h
effect of treatment time on blanching response ([3]; application from a few minutes to 24 hours following UV-irradiation): the earlier a given treatment was made after UV-irradiation, the greater the blanching response
vehicle effectiveness, peak blanching response: rank 1 (decreasing order) ([3]; at a given concentration): propylene glycol/ethanol (50/50, w/w)
vehicle effectiveness, peak blanching response: rank 2 (decreasing order) ([3]; at a given concentration): ethanol/propylene glycol/water (50/10/40, w/w/w)=cream
vehicle effectiveness, peak blanching response: rank 3 (decreasing order) ([3]; at a given concentration): ethanol/water (80/20, w/w)
anti-erythemic activity ([3]; conclusion): has anti-erythemic activity
duration of some degree of blanching ([3]; higher concentrations, after treatment, dose-related): 5 to 11 h
blanching response, repeated application ([3]; low concentrations, e.g., 0.03%, 1 to 4 times within 24 hours): high blanching response
antierythemic activity by vehicle ([3]; propylene glycol/ethanol (50/50, w/w) vehicle): highest antierythemic activity
reduction in pedal edema compared to non-treated control group ([4]; 2% solution in 1:1 propylene glycol and ethanol): significant improvement compared to the non-treated control group
reduction in pedal edema compared with aspirin 200 mg/kg/day oral [4]: comparable
IC50 [1]: 400 µM

SMILES: CC(=O)Oc1ccccc1C(=O)O [aspirin]
skin irritation on repeated topical application ([5]; repeated topical application of a high level): primary irritation and peeling of the superificial layers (the stratum corneum) of the skin
concentration needed for topical analgesic effect ([5]; topical): a relatively high concentration of aspirin must be topically applied before its effect as a topical analgesic is noted
effect on inflammation in humans when applied topically ([5]; topical): can delay and decrease inflammation in humans when applied topically
gastric irritation and frank stomach bleeding, patients affected [6]: up to 70%
